According to paper PMC10218596 (International Journal of Molecular Sciences, 2023):
Where a SMILES comes first, the peptide text is derived from it. Bridges are numbered along the chain shown (N, C = ends).

What was measured:
hα6/α3β4 = molecular target: T1, hα6/α3β4 (Homo sapiens, UniProt P30926+P32297+Q15825); assay: cell-based; format: cell-based
T1 construct: splicing the N-terminal extracellular domain of the α6 subunit with the α3 subunit; host or cells: Xenopus laevis oocytes injected with cRNA (1:1)

hα6/α3β4K31R = molecular target: T2, hα6/α3β4K31R (Homo sapiens, UniProt P30926+Q15825, K57R); format: cell-based
T2 construct: splicing the N-terminal extracellular domain of the α6 subunit with the α3 subunit; mutant made by PCR mutagenesis; host or cells: Xenopus laevis oocytes injected with cRNA

hα6/α3β4Q33E = molecular target: T3, hα6/α3β4Q33E (Homo sapiens, UniProt P30926+Q15825, Q59E); format: cell-based
T3 construct: splicing the N-terminal extracellular domain of the α6 subunit with the α3 subunit; mutant made by PCR mutagenesis; host or cells: Xenopus laevis oocytes injected with cRNA

hα6/α3β4A37S = molecular target: T4, hα6/α3β4A37S (Homo sapiens, UniProt P30926+Q15825, A63S); format: cell-based
T4 construct: splicing the N-terminal extracellular domain of the α6 subunit with the α3 subunit; mutant made by PCR mutagenesis; host or cells: Xenopus laevis oocytes injected with cRNA

hα6/α3β4V53I = molecular target: T5, hα6/α3β4V53I (Homo sapiens, UniProt P30926+Q15825, V79I); format: cell-based
T5 construct: splicing the N-terminal extracellular domain of the α6 subunit with the α3 subunit; mutant made by PCR mutagenesis; host or cells: Xenopus laevis oocytes injected with cRNA

hα6/α3β4T65A = molecular target: T6, hα6/α3β4T65A (Homo sapiens, UniProt P30926+Q15825, T91A); format: cell-based
T6 construct: splicing the N-terminal extracellular domain of the α6 subunit with the α3 subunit; mutant made by PCR mutagenesis; host or cells: Xenopus laevis oocytes injected with cRNA

hα6/α3β4R70C = molecular target: T7, hα6/α3β4R70C (Homo sapiens, UniProt P30926+Q15825, R96C); format: cell-based
T7 construct: splicing the N-terminal extracellular domain of the α6 subunit with the α3 subunit; mutant made by PCR mutagenesis; host or cells: Xenopus laevis oocytes injected with cRNA

hα6/α3β4I84V = molecular target: T8, hα6/α3β4I84V (Homo sapiens, UniProt P30926+Q15825, I110V); format: cell-based
T8 construct: splicing the N-terminal extracellular domain of the α6 subunit with the α3 subunit; mutant made by PCR mutagenesis; host or cells: Xenopus laevis oocytes injected with cRNA

hα6/α3β4L107V = molecular target: T9, hα6/α3β4L107V (Homo sapiens, UniProt P30926+Q15825, L133V); assay: cell-based
T9 construct: splicing the N-terminal extracellular domain of the α6 subunit with the α3 subunit; mutant made by PCR mutagenesis; host or cells: Xenopus laevis oocytes injected with cRNA

hα6/α3β4V115I = molecular target: T10, hα6/α3β4V115I (Homo sapiens, UniProt P30926+Q15825, V141I); assay: cell-based
T10 construct: splicing the N-terminal extracellular domain of the α6 subunit with the α3 subunit; mutant made by PCR mutagenesis; host or cells: Xenopus laevis oocytes injected with cRNA

hα6/α3β4L116Q = molecular target: T11, hα6/α3β4L116Q (Homo sapiens, UniProt P30926+Q15825, L142Q); format: cell-based
T11 construct: splicing the N-terminal extracellular domain of the α6 subunit with the α3 subunit; mutant made by PCR mutagenesis; host or cells: Xenopus laevis oocytes injected with cRNA

hα6/α3β4Y133H = molecular target: T12, hα6/α3β4Y133H (Homo sapiens, UniProt P30926+Q15825, Y159H); format: cell-based
T12 construct: splicing the N-terminal extracellular domain of the α6 subunit with the α3 subunit; mutant made by PCR mutagenesis; host or cells: Xenopus laevis oocytes injected with cRNA

hα6/α3β4M160K = molecular target: T13, hα6/α3β4M160K (Homo sapiens, UniProt P30926+Q15825, M186K); format: cell-based
T13 construct: formed by splicing the N-terminal extracellular domain of the α6 subunit with the α3 subunit; human nAChR α3 subunit (CHRNA3); expressed in transfected cells; host or cells: Xenopus laevis oocytes injected with cRNA (plasmids from the University of Utah)

hα6/α3β4T161S = molecular target: T14, hα6/α3β4T161S (Homo sapiens, UniProt P30926+Q15825, T187S); format: cell-based
T14 construct: formed by splicing the N-terminal extracellular domain of the α6 subunit with the α3 subunit; human nAChR α3 subunit (CHRNA3); expressed in transfected cells; host or cells: Xenopus laevis oocytes injected with cRNA (plasmids from the University of Utah)

hα6/α3β4S165I = molecular target: T15, hα6/α3β4S165I (Homo sapiens, UniProt P30926+Q15825, S191I); format: cell-based
T15 construct: formed by splicing the N-terminal extracellular domain of the α6 subunit with the α3 subunit; human nAChR α3 subunit (CHRNA3); expressed in transfected cells; host or cells: Xenopus laevis oocytes injected with cRNA (plasmids from the University of Utah)

h[α6R3Q/α3]β4 = molecular target: T16, h[α6R3Q/α3]β4 (Homo sapiens, UniProt P30926+P32297+Q15825, R36Q); format: cell-based
T16 construct: formed by splicing the N-terminal extracellular domain of the α6 subunit with the α3 subunit; human nAChR α3 subunit (CHRNA3); expressed in transfected cells; host or cells: Xenopus laevis oocytes injected with cRNA (plasmids from the University of Utah)

h[α6K7T/α3]β4 = molecular target: T17, h[α6K7T/α3]β4 (Homo sapiens, UniProt P30926+P32297+Q15825, K40T); format: cell-based
T17 construct: formed by splicing the N-terminal extracellular domain of the α6 subunit with the α3 subunit; human nAChR α3 subunit (CHRNA3); expressed in transfected cells; host or cells: Xenopus laevis oocytes injected with cRNA (plasmids from the University of Utah)

h[α6S10A/α3]β4 = molecular target: T18, h[α6S10A/α3]β4 (Homo sapiens, UniProt P30926+P32297+Q15825, S43A); format: cell-based
T18 construct: formed by splicing the N-terminal extracellular domain of the α6 subunit with the α3 subunit; human nAChR α3 subunit (CHRNA3); expressed in transfected cells; host or cells: Xenopus laevis oocytes injected with cRNA (plasmids from the University of Utah)

[1] = read-out: inhibition of the current response to 100 μM ACh

T1 sequence (Q15825+P32297 fused with the stated changes): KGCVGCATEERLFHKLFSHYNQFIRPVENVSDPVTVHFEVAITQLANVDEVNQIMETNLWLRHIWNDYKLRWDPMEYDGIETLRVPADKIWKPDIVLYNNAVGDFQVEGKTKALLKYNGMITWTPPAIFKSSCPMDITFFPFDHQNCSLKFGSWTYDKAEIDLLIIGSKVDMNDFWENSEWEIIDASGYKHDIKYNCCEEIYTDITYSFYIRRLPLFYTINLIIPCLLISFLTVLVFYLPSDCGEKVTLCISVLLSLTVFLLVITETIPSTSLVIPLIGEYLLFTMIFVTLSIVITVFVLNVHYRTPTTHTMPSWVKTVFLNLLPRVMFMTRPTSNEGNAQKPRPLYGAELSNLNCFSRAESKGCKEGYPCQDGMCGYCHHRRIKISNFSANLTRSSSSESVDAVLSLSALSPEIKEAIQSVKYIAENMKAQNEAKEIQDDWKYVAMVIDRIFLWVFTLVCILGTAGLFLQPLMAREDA
T1 sequence (P30926 22-498): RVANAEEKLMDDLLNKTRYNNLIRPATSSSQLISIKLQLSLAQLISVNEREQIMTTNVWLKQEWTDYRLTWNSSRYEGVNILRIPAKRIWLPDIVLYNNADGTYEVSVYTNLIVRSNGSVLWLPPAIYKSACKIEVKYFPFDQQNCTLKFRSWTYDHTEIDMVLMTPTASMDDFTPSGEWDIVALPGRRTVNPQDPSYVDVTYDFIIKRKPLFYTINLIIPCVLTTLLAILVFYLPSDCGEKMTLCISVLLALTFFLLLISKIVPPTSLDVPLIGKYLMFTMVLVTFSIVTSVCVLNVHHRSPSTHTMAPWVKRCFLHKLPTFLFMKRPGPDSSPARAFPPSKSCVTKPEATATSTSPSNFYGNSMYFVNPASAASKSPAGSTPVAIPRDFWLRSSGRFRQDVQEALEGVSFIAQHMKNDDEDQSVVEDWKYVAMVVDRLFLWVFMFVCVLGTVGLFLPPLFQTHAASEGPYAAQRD
T9 sequence (Q15825 26-239 limits assumed): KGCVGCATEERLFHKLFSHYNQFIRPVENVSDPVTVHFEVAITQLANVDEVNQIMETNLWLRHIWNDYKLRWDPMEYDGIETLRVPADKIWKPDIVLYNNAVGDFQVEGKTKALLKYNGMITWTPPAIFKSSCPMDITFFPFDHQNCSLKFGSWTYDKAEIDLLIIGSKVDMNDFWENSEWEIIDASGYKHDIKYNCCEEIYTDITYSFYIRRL
T9 sequence (P30926 22-498 L133V): as the sequence (P30926 22-498) above, with L112V counted along it
T10 sequence (Q15825 26-239 limits assumed): as the sequence (Q15825 26-239 limits assumed) above
T10 sequence (P30926 22-498 V141I): as the sequence (P30926 22-498) above, with V120I counted along it
T16 sequence (Q15825+P32297 fused with the stated changes): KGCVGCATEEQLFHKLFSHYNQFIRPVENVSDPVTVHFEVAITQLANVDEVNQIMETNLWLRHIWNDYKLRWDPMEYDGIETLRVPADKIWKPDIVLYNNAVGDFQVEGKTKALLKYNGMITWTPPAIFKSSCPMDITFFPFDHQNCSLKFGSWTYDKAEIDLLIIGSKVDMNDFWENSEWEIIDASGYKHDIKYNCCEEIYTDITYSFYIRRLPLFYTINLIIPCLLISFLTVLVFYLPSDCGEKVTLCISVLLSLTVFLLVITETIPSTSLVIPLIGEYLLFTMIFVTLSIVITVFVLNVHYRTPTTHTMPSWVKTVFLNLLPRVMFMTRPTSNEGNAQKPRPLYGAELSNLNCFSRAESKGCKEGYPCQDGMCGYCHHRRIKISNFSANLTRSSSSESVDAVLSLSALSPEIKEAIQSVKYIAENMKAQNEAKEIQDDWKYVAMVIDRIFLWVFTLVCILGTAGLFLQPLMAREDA
T16 sequence (P30926 22-498): as the sequence (P30926 22-498) above
T17 sequence (Q15825+P32297 fused with the stated changes): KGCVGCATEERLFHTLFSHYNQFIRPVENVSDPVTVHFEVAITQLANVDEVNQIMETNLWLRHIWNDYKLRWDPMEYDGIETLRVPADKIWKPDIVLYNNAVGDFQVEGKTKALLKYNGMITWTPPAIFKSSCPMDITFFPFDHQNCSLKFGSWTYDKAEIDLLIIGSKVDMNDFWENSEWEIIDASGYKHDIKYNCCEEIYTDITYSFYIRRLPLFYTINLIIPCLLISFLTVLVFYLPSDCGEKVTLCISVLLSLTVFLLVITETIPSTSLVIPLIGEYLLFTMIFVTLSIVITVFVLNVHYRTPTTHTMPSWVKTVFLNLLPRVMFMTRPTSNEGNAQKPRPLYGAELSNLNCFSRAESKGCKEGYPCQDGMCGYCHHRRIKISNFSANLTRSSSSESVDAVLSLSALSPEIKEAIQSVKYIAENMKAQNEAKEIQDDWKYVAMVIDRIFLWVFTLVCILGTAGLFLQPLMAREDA
T17 sequence (P30926 22-498): as the sequence (P30926 22-498) above
T11 sequence (Q15825 26-239 limits assumed): as the sequence (Q15825 26-239 limits assumed) above
T11 sequence (P30926 22-498 L142Q): as the sequence (P30926 22-498) above, with L121Q counted along it
T7 sequence (Q15825 26-239 limits assumed, stated change not applied): as the sequence (Q15825 26-239 limits assumed) above
T7 sequence (P30926 22-498 R96C): as the sequence (P30926 22-498) above, with R75C counted along it
T8 sequence (Q15825 26-239 limits assumed): as the sequence (Q15825 26-239 limits assumed) above
T8 sequence (P30926 22-498 I110V): as the sequence (P30926 22-498) above, with I89V counted along it
T14 sequence (Q15825 26-239 limits assumed): as the sequence (Q15825 26-239 limits assumed) above
T14 sequence (P30926 22-498 T187S): as the sequence (P30926 22-498) above, with T166S counted along it
T2 sequence (Q15825 26-239 limits assumed): as the sequence (Q15825 26-239 limits assumed) above
T2 sequence (P30926 22-498 K57R): as the sequence (P30926 22-498) above, with K36R counted along it
T13 sequence (Q15825 26-239 limits assumed, stated change not applied): as the sequence (Q15825 26-239 limits assumed) above
T13 sequence (P30926 22-498 M186K): as the sequence (P30926 22-498) above, with M165K counted along it
T5 sequence (Q15825 26-239 limits assumed): as the sequence (Q15825 26-239 limits assumed) above
T5 sequence (P30926 22-498 V79I): as the sequence (P30926 22-498) above, with V58I counted along it
T15 sequence (Q15825 26-239 limits assumed): as the sequence (Q15825 26-239 limits assumed) above
T15 sequence (P30926 22-498 S191I): as the sequence (P30926 22-498) above, with S170I counted along it
T3 sequence (Q15825 26-239 limits assumed): as the sequence (Q15825 26-239 limits assumed) above
T3 sequence (P30926 22-498 Q59E): as the sequence (P30926 22-498) above, with Q38E counted along it
T4 sequence (Q15825 26-239 limits assumed): as the sequence (Q15825 26-239 limits assumed) above
T4 sequence (P30926 22-498 A63S): as the sequence (P30926 22-498) above, with A42S counted along it
T12 sequence (Q15825 26-239 limits assumed): as the sequence (Q15825 26-239 limits assumed) above
T12 sequence (P30926 22-498 Y159H): as the sequence (P30926 22-498) above, with Y138H counted along it
T6 sequence (Q15825 26-239 limits assumed): as the sequence (Q15825 26-239 limits assumed) above
T6 sequence (P30926 22-498 T91A): as the sequence (P30926 22-498) above, with T70A counted along it
T18 sequence (Q15825+P32297 fused with the stated changes): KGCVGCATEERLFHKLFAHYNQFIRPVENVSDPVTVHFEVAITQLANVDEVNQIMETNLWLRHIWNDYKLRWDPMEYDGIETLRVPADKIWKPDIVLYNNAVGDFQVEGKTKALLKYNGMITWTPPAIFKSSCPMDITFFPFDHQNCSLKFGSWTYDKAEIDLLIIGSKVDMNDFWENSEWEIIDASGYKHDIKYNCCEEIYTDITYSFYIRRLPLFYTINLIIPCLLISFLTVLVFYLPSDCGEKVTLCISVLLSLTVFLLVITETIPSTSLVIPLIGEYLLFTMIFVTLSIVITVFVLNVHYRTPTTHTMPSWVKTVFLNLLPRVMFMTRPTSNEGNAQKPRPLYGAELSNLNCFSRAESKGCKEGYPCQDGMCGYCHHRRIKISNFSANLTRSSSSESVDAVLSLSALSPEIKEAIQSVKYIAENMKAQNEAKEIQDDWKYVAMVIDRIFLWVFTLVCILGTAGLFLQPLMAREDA
T18 sequence (P30926 22-498): as the sequence (P30926 22-498) above

CC(C)C[C@@H]1NC(=O)[C@H](CC(=O)O)NC(=O)[C@@H]2CCCN2C(=O)[C@H](Cc2c[nH]cn2)NC(=O)[C@H](CCCCN)NC(=O)[C@H](CC(N)=O)NC(=O)[C@H](CCCNC(=N)N)NC(=O)[C@@H]2CSSC[C@H](NC(=O)CN)C(=O)N[C@@H](CSSC[C@@H](C(N)=O)NC1=O)C(=O)N[C@@H](CO)C(=O)N[C@@H](CC(=O)O)C(=O)N1CCC[C@H]1C(=O)N1CCC[C@H]1C(=O)N2 [TxIB] (H-GCCSDPPCRNKHPDLC-NH2; disulfide 2-8, 3-16)
Hill Slope (hα6/α3β4): 0.8 (0.8–0.9) | Ratio (change in TxIB IC50 relative to hα6/α3β4) (hα6/α3β4): 1 | blocking effect (hα6/α3β4): completely blocked | variation of activity between human and murine nAChRs (hα6/α3β4): more than 30 fold | activity at 10 µM (hα6/α3β4; [1]): 11 ± 5.9% | Hill Slope (hα6/α3β4K31R): 0.8 (0.7–0.9) | Ratio (change in TxIB IC50 relative to hα6/α3β4) (hα6/α3β4K31R): 2.2 | Hill Slope (hα6/α3β4Q33E): 0.9 (0.7–1.0) | Ratio (change in TxIB IC50 relative to hα6/α3β4) (hα6/α3β4Q33E): 0.8 | Hill Slope (hα6/α3β4A37S): 0.9 (0.8–1.0) | Ratio (change in TxIB IC50 relative to hα6/α3β4) (hα6/α3β4A37S): 1.1 | Hill Slope (hα6/α3β4V53I): 0.8 (0.7–0.9) | Ratio (change in TxIB IC50 relative to hα6/α3β4) (hα6/α3β4V53I): 1.1 | Hill Slope (hα6/α3β4T65A): 0.9 (0.8–1.0) | Ratio (change in TxIB IC50 relative to hα6/α3β4) (hα6/α3β4T65A): 1 | Hill Slope (hα6/α3β4R70C): 0.8 (0.7–1.0) | Ratio (change in TxIB IC50 relative to hα6/α3β4) (hα6/α3β4R70C): 0.9 | Hill Slope (hα6/α3β4I84V): 0.8 (0.8–0.9) | Ratio (change in TxIB IC50 relative to hα6/α3β4) (hα6/α3β4I84V): 1.4 | Hill Slope (hα6/α3β4L107V): 0.8 (0.7–0.9) | Ratio (change in TxIB IC50 relative to hα6/α3β4) (hα6/α3β4L107V): 3.3 | activity at 10 µM (hα6/α3β4L107V; [1]): 21.7 ± 4.29% | Hill Slope (hα6/α3β4V115I): 0.8 (0.7–0.9) | Ratio (change in TxIB IC50 relative to hα6/α3β4) (hα6/α3β4V115I): 2.8 | activity at 10 µM (hα6/α3β4V115I; [1]): 20.1 ± 3.86% | Hill Slope (hα6/α3β4L116Q): 0.8 (0.7–0.9) | Ratio (change in TxIB IC50 relative to hα6/α3β4) (hα6/α3β4L116Q): 1.7 | Hill Slope (hα6/α3β4Y133H): 0.8 (0.7–1.0) | Ratio (change in TxIB IC50 relative to hα6/α3β4) (hα6/α3β4Y133H): 1.3 | Hill Slope (hα6/α3β4M160K): 0.9 (0.7–1.1) | Ratio (change in TxIB IC50 relative to hα6/α3β4) (hα6/α3β4M160K): 1.5 | Hill Slope (hα6/α3β4T161S): 0.8 (0.6–0.9) | Ratio (change in TxIB IC50 relative to hα6/α3β4) (hα6/α3β4T161S): 1.8 | Hill Slope (hα6/α3β4S165I): 0.7 (0.6–0.9) | Ratio (change in TxIB IC50 relative to hα6/α3β4) (hα6/α3β4S165I): 1 | Hill Slope (h[α6R3Q/α3]β4): 0.9 (0.8–1.1) | Ratio (change in TxIB IC50 relative to hα6/α3β4) (h[α6R3Q/α3]β4): 0.9 | Hill Slope (h[α6K7T/α3]β4): 0.8 (0.6–0.9) | Ratio (change in TxIB IC50 relative to hα6/α3β4) (h[α6K7T/α3]β4): 1.4 | Hill Slope (h[α6S10A/α3]β4): 0.8 (0.7–0.9)
